Key:
Type in all cases: physicochemical
[1] = Hue of colored solution, visual observation; conditions: 0.01% by mass normal decane solution, visually observed
Description: (§1) A methine dye (the above-described exemplary compounds 5, 15, and 23 shown in Table 1 below were prepared) and normal decane (n-decane) which is an organic solvent were mixed. In this way, three kinds of 0.01% by mass normal decane solutions (colored compositions) each colored with a methine dye were prepared.
(§2) With regard to each of the colored solutions thus prepared, the hue, absorption maximum wavelength (λmax), absorbance (abs), and absorption coefficient (∈) were measured and evaluated according to the methods described below. Further, with regard to each of the dyes described below, the solubility (% by mass) with respect to normal hexane (n-hexane) was measured and evaluated according to the method described below.
(1) Hue Each of the colored solutions (colored compositions) was visually observed, and the hue thereof was judged.

[2] = Absorption maximum wavelength, absorbance and absorption coefficient of colored solution (visible absorptiometer); conditions: 0.01% by mass normal decane solution
Description: as §1, §2
(2) Absorption Maximum Wavelength, Absorbance, and Absorption Coefficient
With regard to the colored solutions (colored compositions), the absorption maximum wavelength (λmax) and the absorbance were measured using a visible absorptiometer (trade name: UV-1800PC, manufactured by Shimadzu Corp.), and the absorption coefficient (∈) was calculated based on the Lambert-Beer law.

[3] = Solubility with respect to hexane
Description: (3) Solubility with Respect to Hexane
The solubility of each methine dye with respect to normal hexane (n-hexane) which is a nonpolar solvent was measured in a manner as described below.
The dye was dissolved in normal hexane heated to 50° C. to prepare a saturated solution. Thereafter, the saturated solution thus obtained was left for one hour under an environment of 25° C. and 0.1 MPa.

Color of solution [1]: yellow
Absorbance (abs) [2]: 0.525
Absorption maximum wavelength (λmax) [2]: 441 nm
Absorption coefficient (ε) ([2]; calculated based on the Lambert-Beer law): 3.20 × 10^4
solubility with respect to hexane (in words) ([3]; hexane, a hydrocarbon solvent): high solubility
Solubility in hexane (%) ([3]; n-hexane, 25° C. and 0.1 MPa, % by mass): 40 or more %
Compound: CCCCCCC(Oc1ccc(C(C)(C)CC)cc1C(C)(C)CC)C(=O)NCC(C)c1nc2/c(=C\c3c(C)nn4nc(C(C)CNC(=O)C(CCCCCC)Oc5ccc(C(C)(C)CC)cc5C(C)(C)CC)[nH]c34)c(C)nn2n1 (stereo not drawn) [Exemplary compound 5]

Reference: patent publication US9335538B2, “Electrowetting display device and dye composition for electrowetting display” (FUJIFILM CORPORATION, priority 2012, dated 2016)
